US9890147B2 (BAYER PHARMA AKTIENGESELLSCHAFT, priority 2012, dated 2018)

Molecular target: T1, BRD4 (BD1) (Homo sapiens, UniProt O60885)
T1 construct: with relatively long constructs also being possible, preferably amino acids 44-168; made in house; host or cells: E. coli
Test: Binding assay BRD4/acetylated peptide H4 (TR-FRET protein-protein interaction assay)
Source text: Binding Assay BRD4/Acetylated Peptide H4 (“PRO”)
To assess the BRD4 binding of the substances described in the present application, their ability to inhibit the interaction between BRD4 (BD1) and acetylated histone H4 in a dose-dependent manner was quantified (Filippakopoulos et al., Cell, 2012, 149: 214-231).
For this purpose, use was made of a time-resolved fluorescence resonance energy transfer (TR-FRET) assay which measured binding between N-terminally His6-tagged BRD4 (BD1) (amino acids 67-152, with relatively long constructs also being possible, preferably amino acids 44-168) and a synthetic acetylated histone H4 (Ac—H4) peptide having the sequence GRGK(Ac)GGK(Ac)GLGK(Ac)GGAK(Ac)RHGSGSK-biotin. The recombinant BRD4 protein-produced according to Filippakopoulos et al., Cell, 2012, 149: 214-231—was expressed in E. coli and purified by (Ni-NTA) affinity and (Sephadex G-75) size exclusion chromatography. The Ac—H4 peptide is commercially available, for example from Biosyntan (Berlin, Germany). In a typical assay, 11 different concentrations of each substance (0.1 nM, 0.33 nM, 1.1 nM, 3.8 nM, 13 nM, 44 nM, 0.15 μM, 0.51 μM, 1.7 μM, 5.9 μM and 20 μM) were measured in duplicate on the same microtitre plate. To this end, 100-fold concentrated solutions in DMSO were prepared by serial dilution (1:3.4) of a 2 mM stock solution in a clear 384-well microtitre platte (Greiner Bio-One, Frickenhausen, Germany) 50 nl of these were transferred into a black test plate (Greiner Bio-One, Frickenhausen, Germany). The test was started by addition of 2 μl of a 2.5-fold concentrated BRD4 solution (final concentration usually 10 nM in the […] of the reaction volume) in aqueous assay buffer [50 mM HEPES pH 7.5. 50 mM sodium chloride (NaCl), 0.25 mM CHAPS and 0.05% serum albumin (BSA)] to the substances in the test plate. This was followed by a 10-minute incubation step at 22° C. to pre-equilibrate putative complexes between BRD4 and the substances.
The mixture was then incubated in the dark for one hour at 22° C. and then for at least 3 hours and at most overnight at 4° C. Formation of BRD4/Ac—H4 complexes was determined by measuring the resonance energy transfer from the streptavidin-Eu cryptate to the anti-6His-XL665 antibody in the reaction. To this end, the fluorescence emission was measured at 620 nm and 665 nm after excitation at 330-350 nm in a TR-FRET measuring device, for example a Rubystar or Pherastar (both from BMG Lab Technologies, Offenburg, Germany) or a Viewlux (Perkin-Elmer). The ratio of the emission at 665 nm and at […] was used as an indicator for the amount of BRD4/Ac—H4 complexes formed.
The data obtained (ratios) were normalized, with 0% inhibition corresponding to the mean of the measured values of a set of controls (usually 32 data points) comprising all reagents. Here, 50 nl of DMSO (100%) were used instead of test substances. An inhibition of 100% corresponded to the mean of the measured values of a set of controls (usually 32 data points) comprising all reagents except for BRD4. The IC50 was determined by regression analysis based on a 4-parameter equation (minimum, maximum, IC50, Hill; Y=Max+(Min−Max)/(1+(X/IC 50)^Hill)).

IC50 | Compound
9870 nM | CNC(=O)N1N=C(c2ccc(N3CCC(O)CC3)cc2)c2cc(OC)c(OC)cc2C[C@H]1C [Example 130.2, (4R)-1-[4-(4-Hydroxypiperidin-1-yl)phenyl]-7,8-dimethoxy-N,4-dimethyl-4,5-dihydro-3H-2,3-benzodiazepine-3-carboxamide]
6490 nM | CCOC(=O)N1N=C(c2ccc(N3CCN(C)CC3)cc2)c2cc(OC)c(OC)cc2CC1C (racemic) [Example 260, Ethyl (±)-7,8-dimethoxy-4-methyl-1-[4-(4-methylpiperazin-1-yl)phenyl]-4,5-dihydro-3H-2,3-benzodiazepine-3-carboxylate]
3830 nM | CNC(=O)N1N=C(c2ccc(Cl)cc2)c2ccc(N3CCCC3)cc2CC1C (racemic) [Example 234, (±)-1-(4-chlorophenyl)-N,4-dimethyl-7-(pyrrolidin-1-yl)-4,5-dihydro-3H-2,3-benzodiazepine-3-carboxamide]
2340 nM | CNC(=O)N1N=C(c2ccc(-c3c(C)nn(C)c3C)cc2)c2cc(OC(F)(F)F)ccc2C[C@H]1C [Example 249.2, (4R)-N,4-dimethyl-8-(trifluoromethoxy)-1-[4-(1,3,5-trimethyl-1H-pyrazol-4-yl)phenyl]-4,5-dihydro-3H-2,3-benzodiazepine-3-carboxamide]
3370 nM | CNC(=O)N1N=C(c2ccc(Cl)cc2)c2ccc(N3CCCCC3=O)cc2CC1C (racemic) [Example 231, (±)-1-(4-chlorophenyl)-N,4-dimethyl-7-(2-oxopiperidin-1-yl)-4,5-dihydro-3H-2,3-benzodiazepine-3-carboxamide]
910 nM | CNC(=O)N1N=C(c2ccc(-c3ccccc3C(=O)O)cc2)c2cc(OC)c(OC)cc2CC1C (racemic) [Example 6, (±)-4′-{7,8-dimethoxy-4-methyl-3-[(methylamino)carbonyl]-4,5-dihydro-3H-2,3-benzodiazepin-1-yl}biphenyl-2-carboxylic acid]
17400 nM | CNC(=O)C1CCN(c2ccc(C3=NN(C(=O)NC)[C@H](C)Cc4cc(OC)c(OC)cc43)cc2)CC1 [Example 189.2, (4R)-7,8-dimethoxy-N,4-dimethyl-1-{4-[4-(methylcarbamoyl)piperidin-1-yl]phenyl}-4,5-dihydro-3H-2,3-benzodiazepine-3-carboxamide]
1230 nM | CNC(=O)N1N=C(c2ccc(N3CCN(S(C)(=O)=O)CC3)cc2)c2cc(Cl)c(OC(F)(F)F)cc2CC1C (racemic) [Example 214, (±)-8-chloro-N,4-dimethyl-1-{4-[4-(methylsulphonyl)piperazin-1-yl]phenyl}-7-(trifluoromethoxy)-4,5-dihydro-3H-2,3-benzodiazepine-3-carboxamide]
9890 nM | CNC(=O)N1N=C(c2ccc(N3CCN(C)CC3)cc2)c2cc(OC(F)(F)F)ccc2C[C@H]1C [Example 250.1, (4R)-N,4-dimethyl-1-[4-(4-methyl-1-piperazinyl)phenyl]-8-(trifluoromethoxy)-4,5-dihydro-3H-2,3-benzodiazepine-3-carboxamide]
1080 nM | CCC1Cc2cc(OC)c(OC)cc2C(c2ccc(N3CCN(C(C)=O)CC3)cc2)=NN1C(=O)NC (racemic) [Example 205, (±)-1-[4-(4-acetylpiperazin-1-yl)phenyl]-4-ethyl-7,8-dimethoxy-N-methyl-4,5-dihydro-3H-2,3-benzodiazepine-3-carboxamide]
300 nM | CNC(=O)N1N=C(c2ccc(N3CCNCC3)cc2)c2cc(Cl)c(OC(F)(F)F)cc2CC1C (racemic) [Example 211, (±)-8-chloro-N,4-dimethyl-1-[4-(piperazin-1-yl)phenyl]-7-(trifluoromethoxy)-4,5-dihydro-3H-2,3-benzodiazepine-3-carboxamide]
6280 nM | CCC1Cc2cc(OC)c(OC)cc2C(c2ccc(N3CCCCC3=O)cc2)=NN1C(=O)NC (racemic) [Example 227, (±)-4-ethyl-7,8-dimethoxy-N-methyl-1-[4-(2-oxopiperidin-1-yl)phenyl]-4,5-dihydro-3H-2,3-benzodiazepine-3-carboxamide]
1690 nM | CCC1Cc2cc(OC)c(OC)cc2C(c2ccc(N3CCOC3=O)cc2)=NN1C(=O)NC (racemic) [Example 228, (±)-4-ethyl-7,8-dimethoxy-N-methyl-1-[4-(2-oxo-1,3-oxazolidin-3-yl)phenyl]-4,5-dihydro-3H-2,3-benzodiazepine-3-carboxamide]
330 nM | CNC(=O)N1N=C(c2ccc(Cl)cc2)c2ccc(N3CCOC3=O)cc2C[C@@H]1C [Example 230.1, (4S)-1-(4-chlorophenyl)-N,4-dimethyl-7-(2-oxo-1,3-oxazolidin-3-yl)-4,5-dihydro-3H-2,3-benzodiazepine-3-carboxamide]
80 nM | CNC(=O)N1N=C(c2ccc(N3CCN(CC(F)(F)F)CC3)cc2)c2cc(OC)c(OC)cc2CC1C (racemic) [Example 197, (±)-7,8-dimethoxy-N,4-dimethyl-1-{4-[4-(2,2,2-trifluoroethyl)piperazin-1-yl]phenyl}-4,5-dihydro-3H-2,3-benzodiazepine-3-carboxamide]
1100 nM | CCC1Cc2cc(OC)c(OC)cc2C(c2ccc(N3CCOCC3)cc2)=NN1C(=O)NC (racemic) [Example 208, (±)-4-ethyl-7,8-dimethoxy-N-methyl-1-[4-(morpholin-4-yl)phenyl]-4,5-dihydro-3H-2,3-benzodiazepine-3-carboxamide]
1490 nM | CNC(=O)N1N=C(c2ccc(N3CC(C)(O)C3)cc2)c2cc(OC)c(OC)cc2C[C@H]1C [Example 185.1, (4R)-1-[4-(3-hydroxy-3-methylazetidin-1-yl)phenyl]-7,8-dimethoxy-N,4-dimethyl-4,5-dihydro-3H-2,3-benzodiazepine-3-carboxamide]
1020 nM | CNC(=O)N1N=C(c2ccc(N3CCN(C)CC3)cc2)c2cc(O)c(O)cc2CC1C (racemic) [Example 199, (±)-7,8-Dihydroxy-N,4-dimethyl-1-[4-(4-methylpiperazin-1-yl)phenyl]-4,5-dihydro-3H-2,3-benzodiazepine-3-carboxamide]
30 nM | CNC(=O)N1N=C(c2ccc(-c3c(C)nn(C)c3C)cc2)c2cc(OC(F)(F)F)ccc2CC1C (racemic) [Example 249, (±)-N,4-dimethyl-8-(trifluoromethoxy)-1-[4-(1,3,5-trimethyl-1H-pyrazol-4-yl)phenyl]-4,5-dihydro-3H-2,3-benzodiazepine-3-carboxamide]
390 nM | COc1cc2c(cc1OC)C(c1ccc(N3CCN(C)CC3)cc1)=NN(C(C)=O)[C@@H](C)C2 (single isomer, unassigned) [Example 245.1]
2000 nM | COc1cc2c(cc1OC)C(c1ccc(N3CCN(C)CC3)cc1)=NN(C(=O)NC1CC1)C(C)C2 (racemic) [Example 257]
780 nM | CNC(=O)N1N=C(c2ccc(-c3cccnc3Cl)cc2)c2cc(OC)c(OC)cc2C[C@H]1C [Example 4.1, (R)-1-[4-(2-chloropyridin-3-yl)phenyl]-7,8-dimethoxy-N,4-dimethyl-4,5-dihydro-3H-2,3-benzodiazepine-3-carboxamide]
480 nM | CNC(=O)N1N=C(c2ccc(N3CCNC(=O)C3)cc2)c2cc(OC)c(OC)cc2C[C@@H]1C [Example 194, (4S)-7,8-dimethoxy-N,4-dimethyl-1-[4-(3-oxopiperazin-1-yl)phenyl]-4,5-dihydro-3H-2,3-benzodiazepine-3-carboxamide]
610 nM | COc1cc2c(cc1OC)C(c1ccc(N3CCN(C)CC3)cc1)=NN(C(=O)C1CC1)C(C)C2 (racemic) [Example 256, (±)-3-(cyclopropylcarbonyl)-7,8-dimethoxy-4-methyl-1-[4-(4-methylpiperazin-1-yl)phenyl]-4,5-dihydro-3H-2,3-benzodiazepine]
3450 nM | CNC(=O)N1N=C(c2ccc(Cl)cc2)c2ccc(N3CCOCC3)cc2CC1C (racemic) [Example 233, (±)-1-(4-chlorophenyl)-N,4-dimethyl-7-(morpholin-4-yl)-4,5-dihydro-3H-2,3-benzodiazepine-3-carboxamide]
